PMC6641592, “Deciphering Design Principles of Förster Resonance Energy Transfer-Based Protease Substrates: Thermolysin-Like Protease from Geobacillus stearothermophilus as a Test Case” (ACS Omega, 2018)
Like-named read-outs stand apart in the source and are kept apart here. AF647 = Alexa Fluor 647 (maleimide); CF = 5,6-carboxyfluorescein; Cy5 = Cy5 (maleimide)

How the values were obtained:
TLP-ste (C288L/N181C) = TLP-ste (C288L/N181C) (Geobacillus stearothermophilus, UniProt P06874, C520L/N413C); settings: for Km / vmax: Michaelis-Menten fit, mean ± SD, triplicate; for vmax: MOPS pH 7.4, 10% DMSO; for kcat/KM: calculated from kcat and KM; for increase of kcat with peptide length: 8aa substrate relative to 4aa substrate with the same acceptor
[1] = after complete hydrolysis with 1 nM TLP-ste, >16 h room temperature; MOPS buffer, 10% DMSO; λex 450/λem 520 nm
TLP-ste = TLP-ste (Geobacillus stearothermophilus, UniProt P06874, C520L/N413C); settings: product 0–20 μM; substrates 8aa-Cy5 and 8aa-AF647 0–2 μM; triplicate
[2] = system: CC(C)C[C@H](NC(=O)CNC(=O)C=Cc1ccco1)C(N)=O; assay: purified protein, by the assay type; settings: other: enzyme preparation TLP-ste (C288L/N181C)
[3] = molecular target: thermolysin-like protease (TLP-ste) from Geobacillus stearothermophilus, C288L/N181C (Geobacillus stearothermophilus)
[4] = corrected for IFE and FRET efficiency, 1 nM TLP-ste, 20 mM MOPS pH 7.4, 5 mM CaCl2, 10% DMSO, 30 °C, donor λex 490/λem 520 nm
[5] = corrected for IFE and FRET efficiency, 1 nM TLP-ste, 30 °C
[6] = corrected for IFE and FRET efficiency, vmax divided by enzyme concentration (1 nM)
[7] = correction: FRET efficiency only
[8] = correction: FRET efficiency only, vmax divided by enzyme concentration
[9] = correction: IFE only, vmax divided by enzyme concentration
[10] = correction: none, vmax divided by enzyme concentration

Row | KM of hydrolysis by 1 nM TLP-ste (Michaelis-Menten fit, donor fluorescence, corrected for IFE and FRET efficiency; 30 °C, MOPS pH 7.4, 10% DMSO) [3] [μM] | Molecule | Km (TLP-ste (C288L/N181C); [4]) [µM] | vmax (TLP-ste (C288L/N181C); [5]) | kcat (TLP-ste (C288L/N181C); [6]) [s^–1] | Km (TLP-ste (C288L/N181C); [7]) [µM] | kcat/KM (TLP-ste (C288L/N181C); [7]) [M⁻¹ s⁻¹] | kcat (TLP-ste (C288L/N181C); [8]) [s⁻¹] | kcat/KM (TLP-ste (C288L/N181C); correction: IFE only) [M⁻¹ s⁻¹] | kcat (TLP-ste (C288L/N181C); [9]) [s⁻¹] | Km (TLP-ste (C288L/N181C); correction: none) [µM] | kcat/KM (TLP-ste (C288L/N181C); correction: none) [M⁻¹ s⁻¹] | kcat (TLP-ste (C288L/N181C); [10]) [s⁻¹] | other results
1 |  | CF-PAGLAC(AF674)-NH2 [4aa-AF647] | 53.3 ± 33.9 | 7.0 ± 3.8 ×10^–4 μM s^–1 | 0.70 | 14.3 ± 4 | 14000 | 0.20 | 12900 | 0.69 | 14.3 ± 4 | 13200 | 0.19 | 
2 |  | CF-PAGLAC(Cy5)-NH2 [4aa-Cy5] | 2.4 ± 1.9 | 3.7 ± 1.6 ×10^–4 μM s^–1 | 0.37 | 1.6 ± 1.3 | 175000 | 0.28 | 145800 | 0.35 | 1.6 ± 1.3 | 162500 | 0.26 | concentration of hydrolyzed peptide above which fluorescence plateaus or decreases (cleaved products form aggregates) [1]: 2500 nM
3 |  | CF-PSVAGLAGGC(AF647)-NH2 [8aa-AF647] | 77.6 ± 38.5 | 57.0 ± 27.0 ×10^–4 μM s^–1 | 5.70 | 17 ± 4.6 | 75900 | 1.29 | 70500 | 5.47 | 17 ± 4.6 | 72900 | 1.24 | increase of kcat with peptide length (TLP-ste (C288L/N181C)): 8 fold
4 |  | CF-PSVAGLAGGC(Cy5)-NH2 [8aa-Cy5] | 17.6 ± 11.1 | 78.2 ± 48.2 ×10^–4 μM s^–1 | 7.82 | 8.2 ± 3.9 | 454900 | 3.73 | 426100 | 7.50 | 8.2 ± 3.9 | 436600 | 3.58 | increase of kcat with peptide length (TLP-ste (C288L/N181C)): 21 fold
5 |  | CF-PVAGLAGC(Cy5)-NH2 [6aa-Cy5] | 11.6 ± 13 | 29.6 ± 26.6 ×10^–4 μM s^–1 | 2.96 | 6.9 ± 6.6 | 271000 | 1.87 | 247400 | 2.87 | 6.9 ± 6.6 | 262300 | 1.81 | concentration of hydrolyzed peptide above which fluorescence plateaus or decreases (cleaved products form aggregates) [1]: 2500 nM
6 |  | H-LAGGC(AF647)-NH2 [AF647-carrying product] |  |  |  |  |  |  |  |  |  |  |  | relative activity of TLP-ste in the presence of product (TLP-ste): relative activity decreases
7 |  | TLP-ste (C288L/N181C) (Geobacillus stearothermophilus; C520L/N413C) |  |  |  |  |  |  |  |  |  |  |  | Km [2]: 7000 µM; kcat [2]: 14 s^–1
8 | 53.3 | {CF}-PAGLAC(AF647)-NH2 [4aa-AF647, CF-PAGLAC(AF647)-NH2] |  |  |  |  |  |  |  |  |  |  |  | 
9 | 2.4 | {CF}-PAGLAC(Cy5)-NH2 [4aa-Cy5, CF-PAGLAC(Cy5)-NH2] |  |  |  |  |  |  |  |  |  |  |  | 
10 | 17.6 | {CF}-PSVAGLAGGC(Cy5)-NH2 [8aa-Cy5, CF-…(Cy5)-NH2] |  |  |  |  |  |  |  |  |  |  |  | 
11 | 77.6 | {CF}-PSVAGLAGGC(AF647)-NH2 [8aa-AF647, CF-…(AF647)-NH2] |  |  |  |  |  |  |  |  |  |  |  | 
12 | 11.6 | {CF}-PVAGLAGC(Cy5)-NH2 [6aa-Cy5, CF-PVAGLAGC(Cy5)-NH2] |  |  |  |  |  |  |  |  |  |  |  | 
